We go through 35 compounds from patent US5780505A, “Substituted N-arylmethylamino derivatives of cyclobutene-3, 4-diones” (American Home Products Corporation, priority 1997, dated 1998).

The first assay concerns Isolated Rat Bladder Strips. Nature of the assay: Inhibition of contractions in isolated rat bladder strips (KCl-enhanced contractile activity; smooth muscle relaxation). Type of assay: cell-based, Sprague-Dawley rats. Conditions: 0.5 h; isolated rat bladder strips, 15 mM additional KCl, 30 minute challenge; read-out: IC50 (50% inhibition of pre-drug contractile activity). The text has this:
The smooth muscle relaxing activity of the compounds of this invention was established in accordance with standard pharmaceutically accepted test procedures with representative compounds as follows:
Sprague-Dawley rats (150-200 g) are rendered unconscious by CO2 asphyxiation and then euthanized by cervical dislocation. The bladder is removed into warm (37 deg.C) physiological salt solution (PSS) of the following composition (mM): NaCl, 118.4; KCl, 4.7; CaCl2, 2.5; MgSO4, 4.7; H2 O, 1,2; NaHCO3, 24.9; KH2 PO4, 1,2; glucose, 11.1; EDTA, 0.023; gassed with […]; pH 7.4. The bladder is opened and then dut into strips 1-2 mm in width and 7-10 mm in length. The strips are subsequently suspended in a 10 mL tissue bath under an initial resting tension of 1.5 g. The strips are held in place by two surgical clips one of which is attached to a fixed hook while the other is attached to an isometric force transducer. […] The carbachol is then washed out and the tissue allowed to relax to its resting level of activity. Following a further 30 min period of recovery an additional 15 mM KCl are introduced into the tissue bath. This increase in KCl concentration results in a large increase in the amplitude of spontaneous contractions (and initiation of contractions in previously quiescent strips) superimposed upon a small increase in basal tone. Following stabilization of this enhanced level of contractile activity, incremental increases in the concentration of test compound or vehicle are introduced into the tissue bath. Contractile activity is measured for each compound or vehicle concentration during the last minute of a 30 minute challenge.
The isometric force developed by the bladder strips is measured using a […] to elicit 50% inhibition of pre-drug contractile activity (IC50 concentration) and is calculated from this concentration-response curve.
As to `Cc1cccc(CNc2c(NC(C)(C)C)c(=O)c2=O)c1C` [Example 23, 3-tert-Butylamino-4-(2,3-dimethyl-benzylamino)-cyclobut-3-ene-1,2-dione], the IC50 was found to be 2.7 ± 0.3 µM.

Turning to `CC(C)(C)Nc1c(NCc2cc(C(F)(F)F)ccc2F)c(=O)c1=O` [Example 64, 3-tert-Butylamino-4-(2-fluoro-5-trifluoromethyl-benzylamino)-cyclobut-3-ene-1,2-dione], the IC50 came to 4.9 ± 2.7 µM.

Regarding `CCCCNc1c(NCc2ccc(C#N)cc2CC)c(=O)c1=O` [Example 24, 4-[(2-Butylamino-3,4-dioxo-cyclobut-1-enylamino)-methyl]-3-ethyl-benzonitrile], the IC50 was 27.1 ± 4 µM.

`CCc1cc(Br)ccc1CNc1c(NC(C)(C)CC)c(=O)c1=O` [Example 49, 3-(4-Bromo-2-ethyl-benzylamino)-4-(1,1-dimethyl-propylamino)-cyclobut-3-ene-1,2-dione]: the IC50 stood at 1 ± 0.6 µM.

Take `CCC(C)(C)Nc1c(NCc2cccc(Cl)c2C)c(=O)c1=O` [Example 97, 3-(3-Chloro-2-methyl-benzylamino)-4-(1,1-dimethyl-propylamino)-cyclobut-3-ene-1,2-dione]: the IC50 came out at 0.28 ± 0.025 µM.

On to `CCC(C)(C)Nc1c(NCc2ccc(C)cc2C)c(=O)c1=O` [Example 79, 3-(2.4-Dimethyl-benzylamino)-4-(1,1-dimethyl-propylamino)-cyclobut-3-ene-1,2-dione], for which the IC50 amounted to 0.53 ± 0.23 µM.

In the case of `CC(C)(C)Nc1c(NCc2ccc(F)cc2F)c(=O)c1=O` [Example 18, 3-tert-Butylamino-4-(2,4-difluoro-benzylamino)-cyclobut-3-ene-1,2-dione], the IC50 turned out to be 2.1 ± 0.9 µM.

Take `CCC(C)(C)Nc1c(NCc2c(Cl)cccc2Cl)c(=O)c1=O` [Example 4, 3-(2,6-Dichloro-benzylamino)-4-(1,1-dimethyl-propylamino)-cyclobut-3-ene-1,2-dione]: the IC50 was determined as 0.28 ± 0.03 µM.

For the compound `CC(=O)N(Cc1ccc(C#N)cc1Cl)c1c(NC(C)(C)C)c(=O)c1=O` [Example 98, N-(2-tert-Butylamino-3,4-dioxo-cyclobut-1-enyl)-N-(2-chloro-4-cyano-benzyl)-acetamide], the IC50 stood at 20.3 ± 0.79 µM.

Take `CCC(C)(C)Nc1c(NCc2cccc(Cl)c2Cl)c(=O)c1=O` [Example 99, 3-(2,3-Dichloro-benzylamino)-4-(1,1-dimethyl-propylamino)-cyclobut-3-ene-1,2-dione]: the concentration for half-maximal inhibition (IC50) amounted to 0.79 ± 0.47 µM.

As for `CCc1cc(C#N)ccc1CNc1c(NC(CC)CC)c(=O)c1=O` [Example 26], the IC50 was 5.2 ± 0.6 µM.

`Cc1cc(C#N)cc(CNc2c(NC(C)C(C)(C)C)c(=O)c2=O)c1` (stereo not drawn) [Example 12, 3-{[3,4-Dioxo-2-(1,2,2-trimethyl-propylamino)-cyclobut-1-enylamino]-methyl}-5-methyl-benzonitrile]: the IC50 worked out at 6.6 ± 1.6 µM.

As for `Cc1ccc(CNc2c(NC(C)(C)C)c(=O)c2=O)cc1C` [Example 84, 3-tert-Butylamino-4-(3,4-dimethyl-benzylamino)-cyclobut-3-ene-1,2-dione], the IC50 stood at 1.6 ± 0.18 µM.

As for `CCc1cc(Br)ccc1CNc1c(N[C@H](C)C(C)(C)C)c(=O)c1=O` [Example 47, 3-(4-Bromo-2-ethyl-benzylamino)-4-(1,2,2-trimethyl-propylamino)-cyclobut-3-ene-1,2-dione], the IC50 was 16.7 ± 6.2 µM.

In the case of `CC(C)(C)Nc1c(NCc2cc(C(F)(F)F)cc(C(F)(F)F)c2)c(=O)c1=O` [Example 73, 3-(3.5-Bis-trifluoromethyl-benzylamino)-4-tert-butylamino-cyclobut-3-ene-1,2-dione], the half-inhibitory concentration (IC50) is 23.5 ± 8.1 µM.

Turning to `CCC(C)(C)Nc1c(NCc2cccc(C)c2C)c(=O)c1=O` [Example 80, 3-(2,3-Dimethyl-benzylamino)-4-(1,1-dimethyl-propylamino)-cyclobut-3-ene-1,2-dione], the IC50 worked out at 5 ± 3.5 µM.

`Cc1cc(C#N)cc(Cl)c1CNc1c(N[C@H](C)C(C)(C)C)c(=O)c1=O` [Example 34, 3-Chloro-4-{[3,4-dioxo-2-(1,2,2-trimethyl-propylamino)-cyclobut-1-enylamino]-methyl}-5-methyl-benzonitrile]: the IC50 amounted to 1.9 ± 1.1 µM.

In the case of `COc1cc(C#N)ccc1CNc1c(N[C@H](C)C(C)(C)C)c(=O)c1=O` [Example 56, 4-{[3,4-Dioxo-2-(1,2,2-trimethyl-propylamino)-cyclobut-1-enylamino]-methyl}-3-methoxy-benzonitrile], the IC50 was 0.95 ± 0.75 µM.

For the compound `Cc1cccc(C)c1CNc1c(N[C@H](C)C(C)(C)C)c(=O)c1=O` [Example 51, 3-(2,6-Dimethyl-benzylamino)-4-(1,2,2-trimethyl-propylamino)-cyclobut-3-ene-1,2-dione], the IC50 came to 5.6 µM.

As to `CC(C)(C)Nc1c(NCc2ccc(F)cc2Cl)c(=O)c1=O` [Example 60, 3-tert-Butylamino-4-(2-chloro-4-fluoro-benzylamino)-cyclobut-3-ene-1,2-dione], the IC50 came out at 1.4 ± 0.4 µM.

Regarding `Cc1ccc(C)c(CNc2c(NC(C)(C)C)c(=O)c2=O)c1` [Example 95, 3-(t-Butylamino)-4-(2.5-dimethyl-benzylamino)-cyclobut-3-ene-1,2-dione], the IC50 was 1.5 ± 0.3 µM.

Turning to `CCC(C)(C)Nc1c(NCc2c(C)cc(C)cc2C)c(=O)c1=O` [Example 81, 3-(1,1-Dimethyl-propylamino)-4-(2,4,6-trimethyl-benzylamino)-cyclobut-3-ene-1,2-dione], the half-maximal inhibitory concentration (IC50) stood at 0.31 ± 0.08 µM.

With `CCC(C)(C)Nc1c(NCc2ccc(F)cc2Cl)c(=O)c1=O` [Example 63, 3-(2-Chloro-4-fluoro-benzylamino)-4-(1,1-dimethyl-propylamino)-cyclobut-3-ene-1,2-dione], the IC50 amounted to 1.5 ± 1 µM.

For the compound `COc1ccc(CNc2c(NC(C)(C)C)c(=O)c2=O)c(OC)c1` [Example 17, 3-tert-Butylamino-4-(2,4-dimethoxy-benzylamino)-cyclobut-3-ene-1,2-dione], the IC50 is 9.6 ± 5.7 µM.

On to `CC(C)(C)Nc1c(NCc2c(F)cccc2F)c(=O)c1=O` [Example 19, 3-tert-Butylamino-4-(2,6-difluoro-benzylamino)-cyclobut-3-ene-1,2-dione], for which the IC50 was 7.5 ± 4.5 µM.

`C[C@@H](Nc1c(NCc2ccc(C#N)c(Cl)c2)c(=O)c1=O)C(C)(C)C` [Example 42, 2-Chloro-4-{[3,4-dioxo-2-(1,2,2-trimethyl-pronylamino)-cyclobut-1-enylamino]-methyl}-benzonitrile]: the IC50 came to 4.7 ± 1.2 µM.

In the case of `CC(C)(C)Nc1c(NCc2cc(F)cc(F)c2)c(=O)c1=O` [Example 71, 3-tert-Butyl amino-4-(3,5-difluoro-benzylamino)-cyclobut-3-ene-1,2-dione], the IC50 worked out at 2.6 ± 0.4 µM.

With `CCC(C)(C)Nc1c(NCc2c(C)cc(C)cc2Cl)c(=O)c1=O` [Example 40, 3-(2-Chloro-4,6-dimethyl-benzylamino)-4-(1,1-dimethyl-propylamino)-cyclobut-3-ene-1,2-dione], the IC50 is 0.2 ± 0.08 µM.

Regarding `CC(C)(C)Nc1c(NCc2cc(Cl)ccc2Cl)c(=O)c1=O` [Example 82, 3-tert-Butylamino-4-(2,5-dichloro-benzylamino)-cyclobut-3-ene-1,2-dione], the IC50 amounted to 0.68 ± 0.24 µM.

For the compound `CCC(C)(C)Nc1c(NCc2ccc(F)cc2F)c(=O)c1=O` [Example 62, 3-(2,4-Difluoro-benzylamino)-4-(1,1-dimethyl-propylamino)-cyclobut-3-ene-1,2-dione], the IC50 stood at 0.22 ± 0.04 µM.

Take `CC(C)(C)Nc1c(NCc2c(Cl)cccc2Cl)c(=O)c1=O` [Example 10, 3-tert-Butylamino-4-(2,6-dichloro-benzylamino)-cyclobut-3-ene-1,2-dione]: the IC50 was 1.11 ± 0.41 µM.

The assay is the same for the next values; noted with them: Rattus norvegicus, 0.5 h; read-out: Percent contraction at 30 μM (C).
In the case of `Cc1cc(C)c(CNc2c(N[C@H](C)C(C)(C)C)c(=O)c2=O)c(Cl)c1` [Example 38, 3-(2-Chloro-4,6-dimethyl-benzylamino)-4-(1,2,2-trimethyl-propylamino)-cyclobut-3-ene-1,2-dione], the percent contraction at 30 µM is 200%.

In the case of `Cc1cccc(C)c1CNc1c(N[C@H](C)C(C)(C)C)c(=O)c1=O` [Example 51, 3-(2,6-Dimethyl-benzylamino)-4-(1,2,2-trimethyl-propylamino)-cyclobut-3-ene-1,2-dione], the percent contraction at 30 µM was 22 ± 3.2%.

Staying with this assay, now noted: Rattus norvegicus; read-out: Percent inhibition at 30 μM (I).
With `Cc1cc(C#N)cc(CNc2c(NC(C)C(C)(C)C)c(=O)c2=O)c1` (stereo not drawn) [Example 12, 3-{[3,4-Dioxo-2-(1,2,2-trimethyl-propylamino)-cyclobut-1-enylamino]-methyl}-5-methyl-benzonitrile], the inhibition at 30 µM came out at 37 ± 0.7%.

For the compound `CC(C)(C)Nc1c(NCc2cc(C(F)(F)F)cc(C(F)(F)F)c2)c(=O)c1=O` [Example 73, 3-(3.5-Bis-trifluoromethyl-benzylamino)-4-tert-butylamino-cyclobut-3-ene-1,2-dione], the inhibition at 30 µM was 35.8 ± 4.9%.

For `Cc1cccc(Cl)c1CNc1c(N[C@H](C)C(C)(C)C)c(=O)c1=O` [Example 29, 3-(2-Chloro-6-methyl-benzylamino)-4-(1,2,2-trimethyl-propylamino)-cyclobut-3-ene-1,2-dione], the inhibition at 30 µM was found to be 38.6 ± 3.6%.

On to `Cc1cccc(C)c1CNc1c(N[C@H](C)C(C)(C)C)c(=O)c1=O` [Example 51, 3-(2,6-Dimethyl-benzylamino)-4-(1,2,2-trimethyl-propylamino)-cyclobut-3-ene-1,2-dione], for which the inhibition at 30 µM amounted to 44%.

Regarding `CCc1cc(CNc2c(N[C@H](C)C(C)(C)C)c(=O)c2=O)ccc1C#N` [Example 45, 4-[{3,4-Dioxo-2-(1,2,2-trimethyl-propylamino)-cyclobut-1-enylamino]-methyl}-2-ethyl-benzonitrile], the inhibition at 30 µM turned out to be 25 ± 2.04%.

As to `Cc1ccc(CNc2c(NC(C)(C)C)c(=O)c2=O)cc1Cl` [Example 90, 3-tert-Butylamino-4-(3-chloro-4-methyl-benzylamino)-cyclobut-3-ene-1,2-dione], the inhibition at 30 µM came to 16.6 ± 3.6%.

In general, IC50 refers to the concentration at which inhibition is half-maximal. As usually defined, the inhibition is the change of the read-out against control, counted positive when it falls.
